Laboratory results published in patent publication US6703410B1, “Crystal forms of 3-(2,4-dichlorobenzyl)-2-methyl-n-(pentylsulfonyl)-3h-benzimidazole-5-carboxamide” (Fujisawa Pharmaceutical Co., Ltd., priority 1998, dated 2004).

Experiments:
[1] = Relative crystallographic stability of the crystal forms; type: physicochemical; details: comparison of crystal forms A, B and C
[2] = Transition of crystal form B into crystal form A in a heated acetone/water slurry, followed by IR spectrum; type: physicochemical; details: suspended in acetone (51.2 g) and water (17.1 g), stirred while heating at 40° C.
Procedure: Crystal form B of 3-(2,4-dichlorobenzyl)-2-methyl-N-(pentylsulfonyl)-3H-benzimidazole-5-carboxamide (5.0 g) was suspended in a mixed solvent consisting of acetone (51.2 g) and water (17.1 g), and the resulting slurry was stirred while heating at 40° C. About 4 hours later, crystals in the slurry completely transitioned into those with the IR spectrum that agreed with the spectrum of crystal form A of 3-(2,4-dichlorobenzyl)-2-methyl-N-(pentylsulfonyl)-3H-benzimidazole-5-carboxamide.

time until crystals in the slurry completely transitioned into crystal form A [2] | SMILES | crystallographic stability relative to the other crystal forms ([1]; listed as crystal form A) | crystallographic stability relative to the other crystal forms ([1]; listed as crystal form B)
– | CCCCCS(=O)(=O)NC(=O)c1ccc2nc(C)n(Cc3ccc(Cl)cc3Cl)c2c1 [Crystal form A, 3-(2,4-dichlorobenzyl)-2-methyl-N-(pentylsulfonyl)-3H-benzimidazole-5-carboxamide] | crystallographically more stable than crystal form B and C | –
About 4 hours | CCCCCS(=O)(=O)NC(=O)c1ccc2nc(C)n(Cc3ccc(Cl)cc3Cl)c2c1 [Crystal form B, 3-(2,4-dichlorobenzyl)-2-methyl-N-(pentylsulfonyl)-3H-benzimidazole-5-carboxamide] | – | not as crystallographically stable as crystal form A
